Columns and labels:
[1] = Cell viability assay (MTT), normal cells; assay type: cell-based; conditions: human, MCF-10A normal mammary gland epithelial cells, four-day incubation
Experimental: The impact of novel compounds 10a-o and 13a-e on cell viability was examined using the MCF-10A (human mammary gland epithelial) normal cell line. The MTT test was employed to assess the cell viability of the novel compounds after a four-day incubation with MCF-10A cells ([El-Sherief et al., 2019]; [Ramadan et al., 2020]).
The effects of compounds 10a-o and 13a-e on cell viability were assessed using the human mammary gland epithelial normal cell line (MCF-10A). The MTT assay assessed the cell viability of compounds 10a-o and 13a-e following a four-day incubation with MCF-10A cells ([El-Sherief et al., 2019]; [Ramadan et al., 2020]). Check Supplementary Appendix A for additional information.
4.2. Biological evaluation
4.2.1 Cell Viability assay (MTT assay)
MTT assay was performed to investigate the effect of the synthesized compounds on mammary epithelial cells (MCF-10A). The cells were propagated in medium consisting of Ham's F-12 medium/ Dulbecco's modified Eagle's medium (DMEM) (1:1) supplemented with 10% foetal calf serum, 2 mM glutamine, insulin (10 μg/mL), hydrocortisone (500 ng/mL) and epidermal growth factor (20 ng/mL). Trypsin ethylenediamine tetra acetic acid (EDTA) was used to passage the cells after every 2-3 days. 96-well flat-bottomed cell culture plates were used to seed the cells at a density of 10^4 cells mL-1. The medium was aspirated from all the wells of culture plates after 24 h followed by the addition of synthesized compounds (in 200 μL medium to yield a final concentration of 0.1% (v/v) dimethyl sulfoxide) into individual wells of the plates.
Four wells were designated to a single compound. The plates were allowed to incubate at 37°C for 96 h. Afterwards, the medium was aspirated and 3-[4,5-dimethylthiazol-2-yl]-2,5-diphenyltetrazolium bromide (MTT) (0.4 mg/mL) in medium was added to each well and subsequently incubated for 3 h. The medium was aspirated and 150 μL dimethyl sulfoxide (DMSO) was added to each well. The plates were vortexed followed by the measurement of absorbance at 540 nm on a microplate reader. The results were presented as inhibition (%) of proliferation in contrast to controls comprising 0.1%

[2] = tested on: pancreatic - MDAMB-231; experiment: Antiproliferative assay (MTT) MDAMB-231; conditions: read-out: Antiproliferative activity IC50 ± SEM (µM) MDAMB-231; MDAMB-231, MTT
[3] = tested on: - MDAMB-231; experiment: Antiproliferative assay (MTT) MDAMB-231
[4] = tested on: four human cancer cell lines (HCT-116, PC-3, MCF-7, MDAMB-231); experiment: Antiproliferative assay, mean of four cell lines (GI50); conditions: for IC50: Homo sapiens, read-out: GI50 (average IC50)
[5] = tested on: colon - HCT-116; experiment: Antiproliferative assay (MTT) HCT-116; conditions: for IC50: read-out: Antiproliferative activity IC50 ± SEM (µM) HCT-116, HCT-116, MTT
[6] = tested on: prostatic - PC-3; experiment: Antiproliferative assay (MTT) PC-3; conditions: for IC50: read-out: Antiproliferative activity IC50 ± SEM (µM) PC-3, PC-3, MTT
[7] = tested on: breast - MCF-7; experiment: Antiproliferative assay (MTT) MCF-7; conditions: for IC50: read-out: Antiproliferative activity IC50 ± SEM (µM) MCF-7, MCF-7, MTT
[8] = tested on: tubulin; experiment: Tubulin polymerization inhibition assay (Cytoskeleton kit);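 for all read-outs here: Cell-free tubulin polymerization read by fluorescent reporter enhancement over a 30 min reaction, with the compound-free kit control taken as 100% activity and inhibition relative to it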; conditions: for Tub %inh / Tub. enzyme inhibition assay %inhibition: 30 min; for Tub %inh: YB-EGY run; for Tub K.Activity: EC = 120, YB-EGY run; for IC50: read-out: Tubulin inhibition IC50 ± SEM, triplicate for each tested concentration; for Tub. enzyme inhibition assay %inhibition: codes 522-537 run; for Tub. enzyme inhibition assay K. Activity: control = 120, codes 522-537 run

## Cc1ccc(/C=C/C(=O)c2sc(SCC(=O)Nc3nc(-c4ccccc4)cs3)nc2C)cc1 [Compound 10d, (E)-2-((4-methyl-5-(3-(p-tolyl)acryloyl)thiazol-2-yl)thio)-N-(4-phenylthiazol-2-yl)acetamide]
[1]
  viability at 96 h, 50 µM: 90%
[2]
  IC50: 8 ± 0.7 µM
[3]; MDAMB-231, 1.56 µM
  Average of Relative viability of cells (%): 89.2%
[3]; MDAMB-231, 3.125 µM
  Average of Relative viability of cells (%): 69.3%
[3]; MDAMB-231, 6.25 µM
  Average of Relative viability of cells (%): 60.4%
[3]; MDAMB-231, 12.5 µM
  Average of Relative viability of cells (%): 31.6%
[3]; MDAMB-231, 25 µM
  Average of Relative viability of cells (%): 25.8%
[3]; MDAMB-231, 50 µM
  Average of Relative viability of cells (%): 16.9%
[3]; MDAMB-231, 100 µM
  Average of Relative viability of cells (%): 13.9%
[4]; GI50 ratio
  Reduced potency compared to doxorubicin (GI50): at least 2.5 fold
  Reduced potency compared to sorafenib (GI50): ≥ 1.5 fold
[4]
  IC50: 13 µM
[5]; HCT-116, 1.56 µM
  Average of Relative viability of cells (%): 100%
[5]; HCT-116, 3.125 µM
  Average of Relative viability of cells (%): 91.5%
[5]; HCT-116, 6.25 µM
  Average of Relative viability of cells (%): 73.6%
[5]; HCT-116, 12.5 µM
  Average of Relative viability of cells (%): 50.2%
[5]; HCT-116, 25 µM
  Average of Relative viability of cells (%): 41.9%
[5]; HCT-116, 50 µM
  Average of Relative viability of cells (%): 29.7%
[5]; HCT-116, 100 µM
  Average of Relative viability of cells (%): 22.4%
[5]
  IC50: 19 ± 1.5 µM
[6]; PC-3, 1.56 µM
  Average of Relative viability of cells (%): 100%
[6]; PC-3, 3.125 µM
  Average of Relative viability of cells (%): 86.5%
[6]; PC-3, 6.25 µM
  Average of Relative viability of cells (%): 69.6%
[6]; PC-3, 12.5 µM
  Average of Relative viability of cells (%): 52.3%
[6]; PC-3, 25 µM
  Average of Relative viability of cells (%): 36.4%
[6]; PC-3, 50 µM
  Average of Relative viability of cells (%): 27.9%
[6]; PC-3, 100 µM
  Average of Relative viability of cells (%): 18.7%
[6]
  IC50: 16 ± 1.3 µM
[7]; MCF-7, 1.56 µM
  Average of Relative viability of cells (%): 97.5%
[7]; MCF-7, 3.125 µM
  Average of Relative viability of cells (%): 84.1%
[7]; MCF-7, 6.25 µM
  Average of Relative viability of cells (%): 57.3%
[7]; MCF-7, 12.5 µM
  Average of Relative viability of cells (%): 39.2%
[7]; MCF-7, 25 µM
  Average of Relative viability of cells (%): 22.6%
[7]; MCF-7, 50 µM
  Average of Relative viability of cells (%): 20.4%
[7]; MCF-7, 100 µM
  Average of Relative viability of cells (%): 8.1%
[7]
  IC50: 10 ± 0.8 µM
[8]; conc 0.1 (unit not given)
  Tub %inh: 17.5%
  Tub K.Activity: 98.945
[8]; conc 1 (unit not given)
  Tub %inh: 26.6%
  Tub K.Activity: 88.129
[8]; conc 10 (unit not given)
  Tub %inh: 45.2%
  Tub K.Activity: 65.722
[8]; conc 50 (unit not given)
  Tub %inh: 71.7%
  Tub K.Activity: 33.903
[8]; conc 100 (unit not given)
  Tub %inh: 91.1%
  Tub K.Activity: 10.641
[8]
  IC50: 5.26 ± 0.16 µM

## Cc1ccc(/C=C/C(=O)c2sc(SCC(=O)Nc3nc(-c4ccc(C)cc4)cs3)nc2C)cc1 [Compound 10n, (E)-2-((4-methyl-5-(3-(p-tolyl)acryloyl)thiazol-2-yl)thio)-N-(4-(p-tolyl)thiazol-2-yl)acetamide]
[1]
  viability at 96 h, 50 µM: 89%
[8]; conc 0.01 (unit not given)
  Tub. enzyme inhibition assay %inhibition: 2.01%
  Tub. enzyme inhibition assay K. Activity: 117.59
[8]; conc 0.1 (unit not given)
  Tub. enzyme inhibition assay %inhibition: 8.94%
  Tub. enzyme inhibition assay K. Activity: 109.27
[8]; conc 1 (unit not given)
  Tub. enzyme inhibition assay %inhibition: 26.1%
  Tub. enzyme inhibition assay K. Activity: 88.73
[8]; conc 10 (unit not given)
  Tub. enzyme inhibition assay %inhibition: 49.9%
  Tub. enzyme inhibition assay K. Activity: 60.139
[8]; conc 100 (unit not given)
  Tub. enzyme inhibition assay %inhibition: 76.7%
  Tub. enzyme inhibition assay K. Activity: 27.908
[8]
  IC50: 16 ± 0.59 µM
[8]; supplement raw data, lab codes
  Tub. (IC50) IC50±SD: 8.075 ± 0.3 µg/mL

## Cc1nc(SCC(=O)Nc2nccs2)sc1C(=O)/C=C/c1ccccc1 [Compound 13a, (E)-2-((5-cinnamoyl-4-methylthiazol-2-yl)thio)-N-(thiazol-2-yl)acetamide]
[1]
  viability at 96 h, 50 µM: 89%
[8]; conc 0.1 (unit not given)
  Tub %inh: 5.68%
  Tub K.Activity: 113.18
[8]; conc 1 (unit not given)
  Tub %inh: 16.6%
  Tub K.Activity: 100.09
[8]; conc 10 (unit not given)
  Tub %inh: 32.4%
  Tub K.Activity: 81.141
[8]; conc 50 (unit not given)
  Tub %inh: 62.4%
  Tub K.Activity: 45.076
[8]; conc 100 (unit not given)
  Tub %inh: 78.7%
  Tub K.Activity: 25.608
[8]
  IC50: 15.8 ± 0.48 µM

## COc1ccc(/C=C/C(=O)c2sc(SCC(=O)Nc3nccs3)nc2C)cc1 [Compound 13e, (E)-2-((5-(3-(4-methoxyphenyl)acryloyl)-4-methylthiazol-2-yl)thio)-N-(thiazol-2-yl)acetamide]
[1]
  viability at 96 h, 50 µM: 91%
[8]; conc 0.1 (unit not given)
  Tub %inh: 7.07%
  Tub K.Activity: 111.52
[8]; conc 1 (unit not given)
  Tub %inh: 16.4%
  Tub K.Activity: 100.36
[8]; conc 10 (unit not given)
  Tub %inh: 26.3%
  Tub K.Activity: 88.403
[8]; conc 50 (unit not given)
  Tub %inh: 41.7%
  Tub K.Activity: 69.965
[8]; conc 100 (unit not given)
  Tub %inh: 75.9%
  Tub K.Activity: 28.968
[8]
  IC50: 39.9 ± 1.22 µM

## COc1cccc2c1C(=O)c1c(O)c3c(c(O)c1C2=O)C[C@@](O)(C(=O)CO)C[C@@H]3O[C@H]1C[C@H](N)[C@H](O)[C@H](C)O1 [Doxorubicin, reference compound]
[2]
  IC50: 3 ± 0.1 µM
[4]
  IC50: 5 µM
[5]
  IC50: 5 ± 0.3 µM
[6]
  IC50: 9 ± 0.6 µM
[7]
  IC50: 4 ± 0.2 µM

## CNC(=O)c1cc(Oc2ccc(NC(=O)Nc3ccc(Cl)c(C(F)(F)F)c3)cc2)ccn1 [Sorafenib, reference compound]
[2]
  IC50: 8 ± 0.4 µM
[4]
  IC50: 8 µM
[5]
  IC50: 6 ± 0.3 µM
[6]
  IC50: 12 ± 0.9 µM
[7]
  IC50: 7 ± 0.3 µM

— PMC12040969, “Design, synthesis, in silico studies, and apoptotic antiproliferative activity of novel thiazole-2-acetamide derivatives as tubulin polymerization inhibitors” (Frontiers in Chemistry, 2025)
